Assay results published in PubChem BioAssay AID464 (The Scripps Research Institute Molecular Screening Center, 2006).
Calls of active or inactive are those of the source.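 The calls were made as follows: active = Compounds that kill half the cells at a concentration of 5 micromolar or below, from the fitted or estimated CC50; inactive = CC50 above 5 micromolar.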

Test system: Jurkat E6.1 viability, ATP luminescence, 48 h
Test: viability loss in Jurkat T cells – cell-based, ATP luminescence, 48 h, 60K MLSMR, cytotoxicity control, dose response (AID 464)

SMILES: CCN(Cc1ccccc1)S(=O)(=O)c1ccc(C(=O)Nc2nnc(C3CC3)o2)cc1
- CC50: 32.5 µM (inactive)

SMILES: Cc1nn(-c2nc3ccccc3s2)c(C)c1Oc1ccccc1O
- CC50: > 40 µM (inactive)

SMILES: CC(=O)c1cn(CC(=O)Nc2ccccc2)c2ccccc12
- CC50: 12.6 µM (inactive)

SMILES: CC(=O)c1cc2c(cc1NS(=O)(=O)c1ccc(C)cc1)OCCO2
- CC50: 5.05 µM (inactive)

SMILES: CCc1cc2c(=O)n(Cc3ccco3)c(SCc3c(C)noc3C)nc2s1
- CC50: 4.4 µM

SMILES: CCCC(=O)Nc1nc2ccc(S(=O)(=O)N3CCCCC3)cc2s1
- CC50: 2.82 µM

SMILES: Cn1cc(/C=N/n2cnc3scc(-c4ccc(Cl)cc4)c3c2=O)c2ccccc21
- CC50: 0.373 µM

SMILES: N#Cc1c(NC(=O)CSc2nc(N)cc(=O)[nH]2)sc2c1CCCCCC2
- CC50: 6.25 µM (inactive)

SMILES: N#CC1=C2SCC(O)(c3ccccc3)N2C(=O)CC1c1cccs1 (configuration not stated)
- CC50: 0.361 µM

SMILES: COc1ccccc1-c1cc(C(F)(F)F)nc(S(=O)(=O)CCCC(=O)N2CCCCC2C)n1 (configuration not stated)
- CC50: 4.22 µM

SMILES: CCCCOc1ccc(C(=O)Nc2ccncc2)cc1
- CC50: 1.79 µM

SMILES: CSCc1nnc(NC(=O)c2ccc(S(=O)(=O)N(CC(C)C)CC(C)C)cc2)o1
- CC50: 21.1 µM (inactive)

SMILES: COc1ccc(C2NCc3ccc4c(c3-n3cccc32)OCO4)cc1O (configuration not stated)
- CC50: 0.999 µM

SMILES: CS(=O)(=O)N1CCc2cc(S(=O)(=O)Nc3ccc4c(c3)OCCO4)ccc21
- CC50: 29.1 µM (inactive)

SMILES: O=C(Nc1ccc(N2CCCCC2)c(Cl)c1)c1cccnc1
- CC50: > 40 µM (inactive)

SMILES: O=C1C2C3C=CC(CO)(O3)C2C(=O)N1c1ccccc1-c1ccccc1 (configuration not stated)
- CC50: 6.29 µM (inactive)

SMILES: CCOc1ccc(-c2cc(CCCC(=O)Nc3cccc(OC)c3)no2)cc1
- CC50: 0.809 µM

SMILES: Cn1c(SC2=CS(=O)(=O)c3ccccc32)nc2ccccc21
- CC50: 2.66 µM

SMILES: Cc1cc(NC(=O)CCS(=O)(=O)c2nc(-c3ccccc3)cc(C(F)(F)F)n2)no1
- CC50: 5.13 µM (inactive)

SMILES: COc1ccccc1C1C=C(c2ccc(C)cc2)Nc2nnnn21 (configuration not stated)
- CC50: > 40 µM (inactive)

SMILES: Oc1cccc2ccc(Nc3ccccn3)nc12
- CC50: 1.97 µM

SMILES: COc1ccc(-c2nnnn2-c2ccccc2OC)cc1
- CC50: 8.67 µM (inactive)

SMILES: COc1ccc(CCNc2c(C)c(C)nc3ncnn23)cc1
- CC50: > 13 µM (inactive)

SMILES: Cn1c(-c2ccccc2)cc2c3no[n+]([O-])c3ccc21
- CC50: 2.41 µM

SMILES: Cc1cc(N2CCN(C/C=C/c3ccccc3)CC2)n2ncnc2n1
- CC50: > 40 µM (inactive)

SMILES: COc1cc(C2=NOC(C(=O)NCc3ccc(F)cc3)C2)cc(OC)c1OC (configuration not stated)
- CC50: 0.347 µM

SMILES: Cc1sc(NC(=O)c2ccco2)nc1-c1ccc2c(c1)CC(C)N2C(=O)C1CC1 (configuration not stated)
- CC50: 16.3 µM (inactive)

SMILES: O=C1CCCN1c1ccc(S(=O)(=O)Nc2ccc3c(c2)OCCO3)cc1
- CC50: 1.78 µM

SMILES: Cc1ccc(C)c(S(=O)(=O)Nc2ccc3scnc3c2)c1
- CC50: 3.08 µM

SMILES: C=CCN(CC=C)S(=O)(=O)c1ccc2nc(NC(=O)C(C)C)sc2c1
- CC50: 3.72 µM

SMILES: CC(C)Oc1ccccc1C1CC(=O)Nc2cc3c(cc21)OCCO3 (configuration not stated)
- CC50: 0.576 µM

SMILES: Cc1ccc2c(CC(=O)NCc3ccco3)coc2c1C
- CC50: 7.99 µM (inactive)

SMILES: COc1cc(C2C3=C(Nc4ncnn42)c2ccccc2CC3)cc(OC)c1OC (configuration not stated)
- CC50: 3.67 µM

SMILES: C=CCOC(=O)c1[nH]c2c(c1C)C(=O)CC(c1cc(OC)c(OC)c(OC)c1)C2 (configuration not stated)
- CC50: 24 µM (inactive)

SMILES: CC(=O)N1CCc2c(sc(NC(=O)c3ccc4c(c3)OCCO4)c2C#N)C1
- CC50: 2.6 µM

SMILES: Cn1c(C(=O)NCc2cccs2)cc2oc3ccccc3c21
- CC50: > 40 µM (inactive)

SMILES: COc1ccc(C(NC(C)=O)c2ccc3cccnc3c2O)c(OC)c1 (configuration not stated)
- CC50: 3.15 µM

SMILES: N=c1c2c(n(Cc3ccc(Cl)cc3)c3c1CCC3)CCC2
- CC50: 2.06 µM

SMILES: Cc1cc(Cl)ccc1OCCCC(=O)NO
- CC50: 8.2 µM (inactive)

SMILES: COc1ccc(-n2nnnc2-c2cccc(OC)c2)cc1
- CC50: 0.195 µM

SMILES: O=S1(=O)C=C(Sc2nc3ccccc3s2)c2ccccc21
- CC50: 0.647 µM

SMILES: CC1(C)Cc2nc3sc4c(SCC(=O)NCc5ccco5)ncnc4c3cc2CO1
- CC50: 18 µM (inactive)

SMILES: Cc1ccc2[nH]c(-c3ccccc3)cc(=O)c2c1
- CC50: 0.324 µM

SMILES: Cc1ccc(-n2c(O)c(C=Nc3ccccc3N)c(=O)[nH]c2=O)cc1C
- CC50: > 13 µM (inactive)

SMILES: COc1ccccc1C1CC(=O)Nc2cc3c(cc21)OCCO3 (configuration not stated)
- CC50: 0.912 µM

SMILES: CN(Cc1ccccc1)S(=O)(=O)c1ccc(C(=O)Nc2nnc(C3CC3)o2)cc1
- CC50: 26 µM (inactive)

SMILES: Cc1nc2ccc(S(=O)(=O)Nc3ccccc3C)cc2s1
- CC50: 8.95 µM (inactive)

SMILES: Cc1nc(CNS(=O)(=O)c2ccc(Oc3ccccc3)cc2)cs1
- CC50: 10.6 µM (inactive)

SMILES: COc1cccc2sc(Nc3nnc(-c4cccs4)o3)nc12
- CC50: 10.6 µM (inactive)

SMILES: CC1CC(C)CN(S(=O)(=O)c2ccc(C(=O)Nc3nnc(-c4cccs4)o3)cc2)C1 (configuration not stated)
- CC50: 12.9 µM (inactive)

SMILES: O=C(NCc1ccccc1)c1noc2c1CCCC2
- CC50: 8.77 µM (inactive)

SMILES: CCN(C1CCCCC1)S(=O)(=O)c1ccc(S(=O)(=O)NCc2ccncc2)cc1
- CC50: 5.32 µM (inactive)

SMILES: O=C(Nc1nc(-c2nc3ccccc3s2)cs1)c1ccc(S(=O)(=O)N2CCOCC2)cc1
- CC50: > 40 µM (inactive)

SMILES: CN(C)c1ccc(C(=O)c2ccc(N(C)C)c(N)c2)cc1N
- CC50: 8.53 µM (inactive)

SMILES: CCOC(=O)N1CCN(c2c(NCc3cccs3)c(=O)c2=O)CC1
- CC50: 5.79 µM (inactive)

SMILES: CN(CCCC(=O)Nc1ccncc1)S(=O)(=O)c1ccc(Cl)cc1
- CC50: 5.53 µM (inactive)

SMILES: Cc1ccc(C(=O)Nc2ccc(Cl)cn2)cc1
- CC50: 4.48 µM

SMILES: Cc1cc(C(=O)OCC(=O)NCc2ccco2)c(C)n1-c1ccccc1
- CC50: 2.68 µM

SMILES: CCOc1ccccc1NC(=O)c1cccc(NC(=O)c2ccco2)c1
- CC50: 1.27 µM

SMILES: COc1ccccc1N1CCN(Cc2cc(Br)c(O)c3ncccc23)CC1
- CC50: 7.73 µM (inactive)

SMILES: COc1ccc(OC)c(C2CC(=O)c3c([nH]c(C(=O)OC(C)C)c3C)C2)c1 (configuration not stated)
- CC50: 1.08 µM

SMILES: Cc1nc(C)c(C(=O)Nc2ccc(Oc3ccccc3)cc2)o1
- CC50: 19.4 µM (inactive)

SMILES: COc1ccc(CCNc2ncnc3c2oc2ccccc23)cc1OC
- CC50: 2.72 µM

SMILES: COc1ccc(CCNc2nnc(Sc3nnnn3-c3ccccc3)s2)cc1OC
- CC50: 0.875 µM

SMILES: c1csc(CCNc2ncnc3sc4c(c23)CCC4)c1
- CC50: 13.2 µM (inactive)

SMILES: COc1cc(C(=O)N2CCN(c3cccc(C)c3C)CC2)cc(OC)c1OC
- CC50: 0.37 µM

SMILES: CCN(CC)c1ccc2c(c1)OC(N)=C(C#N)C2c1cccnc1 (configuration not stated)
- CC50: 0.0192 µM

SMILES: CC(=O)C(C(C)=O)c1c(Cl)c(O)c(O)c2c(C(=O)c3ccccc3)coc12
- CC50: 8.76 µM (inactive)

SMILES: CCN(CC)C(=O)C1CCCc2c1[nH]c1ccc(Cl)cc21 (configuration not stated)
- CC50: > 40 µM (inactive)

SMILES: Cc1ccc(C(=O)N2CCN(c3cccc(Cl)c3)CC2)cc1C
- CC50: 19.1 µM (inactive)

SMILES: COc1ccc(N2CCn3c2nc2c3c(=O)n(CCCc3ccccc3)c(=O)n2C)c(OC)c1
- CC50: > 40 µM (inactive)

SMILES: CCOC(=O)C1=C(CNCc2ccc(C)cc2)NC(=O)NC1c1ccc(OC)cc1 (configuration not stated)
- CC50: > 40 µM (inactive)

SMILES: CCn1ncc(C2=NOC(C(=O)NCc3ccc(Cl)cc3)C2)c1C (configuration not stated)
- CC50: 1.61 µM

SMILES: COc1ccc(NS(=O)(=O)c2cc(C)ccc2C)cc1
- CC50: 5.18 µM (inactive)

SMILES: Cc1nc(NCc2ccco2)c2c3c(sc2n1)CCC3
- CC50: 15.6 µM (inactive)

SMILES: Cc1ccc(Cl)cc1N1CCN(C(=O)C2CCN(c3nnc(-n4cccc4)s3)CC2)CC1
- CC50: > 40 µM (inactive)

SMILES: O=C(Cn1cnc2c(cnn2-c2ccccc2)c1=O)NCc1ccccc1
- CC50: 9.12 µM (inactive)

SMILES: Cc1noc(C)c1COC(=O)c1cccc(S(=O)(=O)N2CCCCCC2)c1
- CC50: 21.4 µM (inactive)

SMILES: O=S(=O)(Nc1cccc2ncccc12)c1cccs1
- CC50: 6.36 µM (inactive)

SMILES: c1ccc(-c2nc(N3CCCCCC3)c3ccccc3n2)nc1
- CC50: 10.1 µM (inactive)

SMILES: CCOC(=O)C1=C(N)n2c(s/c(=C\c3ccco3)c2=O)=C(C(=O)OCC)C1c1ccco1 (configuration not stated)
- CC50: 6.77 µM (inactive)

SMILES: CCn1c(NC(=O)c2cccc(Cn3cc(Cl)cn3)c2)nc2ccccc21
- CC50: > 40 µM (inactive)

SMILES: COc1ccc(NS(=O)(=O)c2cc(C)ccc2NC(=O)c2cc(C)oc2C)cc1
- CC50: 0.191 µM

SMILES: O=C(Nc1nc(-c2ccccc2)cs1)C1CCCN(S(=O)(=O)c2ccccc2)C1 (configuration not stated)
- CC50: 20.9 µM (inactive)

SMILES: Cc1ccc(Cl)cc1N1CCN(C(=O)COc2ccc(S(=O)(=O)NC(C)C)cc2)CC1
- CC50: 6.43 µM (inactive)

SMILES: CCn1ncc(C2=NOC(C(=O)NCc3ccccc3)C2)c1C (configuration not stated)
- CC50: 1.09 µM

SMILES: CCOc1ccc2nc(NC(=O)c3ccoc3C)sc2c1
- CC50: 12.6 µM (inactive)

SMILES: Cc1nc2ccccc2n1CC(=O)NCc1ccccc1
- CC50: 5.34 µM (inactive)

SMILES: Cc1ccc(S(=O)(=O)Nc2ccc3ncccc3c2)cc1
- CC50: 10.7 µM (inactive)

SMILES: CCc1ccc(CNc2ccc(O)cc2)cc1
- CC50: > 40 µM (inactive)

SMILES: Cc1cc(C)n(-c2nc3ccccc3c(=O)n2OCC(=O)OCc2ccccc2)n1
- CC50: 9.76 µM (inactive)

SMILES: Cc1nn(C)c(C)c1CNC(=O)c1nn2c(c1Cl)NC(c1cccs1)CC2C(F)(F)F (configuration not stated)
- CC50: 15.2 µM (inactive)

SMILES: CCN1CCN(c2ncc3c(n2)CC(c2cc(OC)c(OC)c(OC)c2)CC3=O)CC1 (configuration not stated)
- CC50: 2.26 µM

SMILES: Cc1cccc(N2CCN(c3cccc(C)c3)C2c2cccnc2)c1
- CC50: 15.8 µM (inactive)

SMILES: COCCCN1C(=O)c2[nH]nc(-c3ccccc3O)c2C1c1cccc(Cl)c1 (configuration not stated)
- CC50: 3.39 µM

SMILES: COc1ccc(NS(=O)(=O)c2ccc(NC(C)=O)cc2)cc1OC
- CC50: 17.7 µM (inactive)

SMILES: CCCN1C(=O)c2ccccc2NC1c1ccc(OC)cc1O (configuration not stated)
- CC50: > 40 µM (inactive)

SMILES: CCN(CC)c1ccc(-c2nn3c(-c4ccccc4OC)nnc3s2)cc1
- CC50: 0.115 µM

SMILES: CC(=O)N1c2ccccc2N(Cc2ccc(C)cc2C)C(=O)C1(C)C
- CC50: 2.22 µM

SMILES: O=C(Oc1ccc2c(c1)OCO2)c1cc2c(s1)CCC2
- CC50: > 40 µM (inactive)

SMILES: c1ccc(-c2noc(-c3ccc4c(c3)OCO4)n2)nc1
- CC50: 2.75 µM

SMILES: CC(C)(C)n1ncc2c(=O)n(CC(=O)NCc3ccc(F)cc3)cnc21
- CC50: 5.13 µM (inactive)

SMILES: O=c1cc(Nc2ccc3c(c2)OCCO3)[nH]c(=O)n1C1CCCCC1
- CC50: 11.7 µM (inactive)

SMILES: Cc1cc(C(=O)N2CCN(c3cccc(Cl)c3)CC2)c(C)o1
- CC50: 4.95 µM

SMILES: CCN(CC)c1ccc2cc(-c3nc4ccccc4n3C)c(=O)oc2c1
- CC50: 0.32 µM

SMILES: CCOC(=O)C1CCN(Cc2ccc(O)c3ncccc23)CC1
- CC50: 9.85 µM (inactive)

SMILES: CCN(Cc1ccncc1)S(=O)(=O)c1ccc(C(C)=O)cc1
- CC50: 9.44 µM (inactive)
